Test results taken from US20080009025A1, “PROTEIN KINASE REGULATION” (priority 1999, published 2008).
Where a SMILES comes first, the peptide text is derived from it.

Key:
p70 S6K = experiment: IGF1-induced activation and Thr412 phosphorylation of HA-p70 S6K in co-transfected 293 cells; format: cell-based, human
Method: FIG. 3. PIF inhibits p70 S6K activation and phosphorylation at Thr252 and Thr412. 293 cells were co-transfected with constructs expressing the wild type (wt) full length HA-p70 S6K (A) or the full length HA-T412E p70 S6K (B) with either GST-PIF, GST-F977A-PIF, or GST. 24 h post transfection the cells were serum starved for 16 h and them stimulated for 40 min with 100 nM IGF 1. The cells were lysed and HA-p70 S6K was immunoprecipitated and assayed as described in methods. Protein from each lysate (10 μg for the HA blots or 20 μg for the T412-P blot) was electrophoresed on a 10% SDS/polyacrylamide gel and immunoblotted using HA-antibody or the T412-P antibody. The T412-P antibody was incubated with either the synthetic peptide (10 μg/ml) corresponding to residues 401 to 418 of p70 S6K phosphorylated at Thr412 (phosph-412E peptide), or the unphosphorylated peptide (de-phospho-Thr412 peptide). The T412-P antibody consistently recognises a protein termed “non specific band” in cell lysates which migrate at (75 kDa) derived from non transfected and transfected cells. […] It is not co-immunoprecipitated with HA-p70 S6K (date not shown). The HA-p70 S6K activities shown are the average ±SEM for a single experiment carried out in triplicate. Similar results were obtained in 8 separate experiments (A) and 2 experiments (B). The immunoblotting was carried out in 3 separate experiments with similar results.
Transient Transfection Experiments. The DNA constructs encoding for the wild type and mutant forms of HA-p70 S6K in the pMT2 vector used in this study have been described previously. […] The constructs used to express GST-PIF and the mutant GST-F977A-PIF [22] are in the pEBG2T vector. The empty pEBG2T vector was used to express GST protein in control experiments. DNA constructs used in this study were purified from bacteria using the Qiagen plasmid Mega kit according to the manufacturer's protocol.
293 cells cultured on 10 cm diameter dishes in Dulbecco's Modified Eagle's Medium containing 10% (by vol) foetal bovine serum, were transfected with 2 μg of DNA construct encoding either wild type or mutant HA-p70 S6K or HA-PKBα, and 10 μg of DNA construct encoding either GST-PIF, GST-F977A-PIF, GST, Myc-PDK1, kinase-dead Myc-PDK1, or the empty pCMV5 vector using a modified calcium phosphate method. 24 h post transfection the cells were deprived of serum for 16 h, and exposed to IGF1 (100 nM) for the time indicated. The cells were lysed in 1 ml of lysis buffer (50 mM Tris/HCl pH 7.5, 1 mM EDTA, 1 mM EGTA, 1% (by vol) Triton X-100, 1 mM sodium orthovanadate, 10 mM sodium β-glycerophosphate, 50 mM NaF, 5 mM sodium pyrophosphate, 1 μM microcystin-LR, 0.27 M sucrose and protease cocktail tablets), cleared by centrifugation, and 50 μg of protein was subjected to immunoprecipitation with anti HA monoclonal antibody. The protein concentrations of the lysates were determined by the Bradford method.
Kinase assays. The HA-p70 S6K or HA-PKBα immunoprecipitates were washed and assayed for kinase activity using the peptide Crosstide (GRPRTSSFAEG) as described previously for PKBα [28]. One unit of activity, U, was that amount which catalysed the phosphorylation of 1 nmol of substrate in one minute.
Immunoblotting for dephosphorylated and Thr412-phosphorylated p70 S6 kinase. Cell lysates were made 1% SDS and the indicated amounts of protein were subjected to SDS/Polyacrylamide gel electrophoresis, subsequently transferred to nitrocellulose and immunoblotted using the indicated monoclonal antibody or the T412-P phospho-specific antibody (0.4 μg/ml) in 50 mM Tris/HCl pH7.5, 0.15M NaCl, 0.5% (by vol) Tween and 10% (by mass) skimmed milk. Detection was performed using the enhanced chemiluminescence reagent (Amersham Pharmacia Biotech).

PDK1 = target: T1, PDK1 (Homo sapiens, UniProt O15530); parameters: Full length PDK1 (residues 1-556); made in house; host or cells: 293 cells; conditions: ref [17]; cited from earlier work
T1 sequence (O15530 1-556): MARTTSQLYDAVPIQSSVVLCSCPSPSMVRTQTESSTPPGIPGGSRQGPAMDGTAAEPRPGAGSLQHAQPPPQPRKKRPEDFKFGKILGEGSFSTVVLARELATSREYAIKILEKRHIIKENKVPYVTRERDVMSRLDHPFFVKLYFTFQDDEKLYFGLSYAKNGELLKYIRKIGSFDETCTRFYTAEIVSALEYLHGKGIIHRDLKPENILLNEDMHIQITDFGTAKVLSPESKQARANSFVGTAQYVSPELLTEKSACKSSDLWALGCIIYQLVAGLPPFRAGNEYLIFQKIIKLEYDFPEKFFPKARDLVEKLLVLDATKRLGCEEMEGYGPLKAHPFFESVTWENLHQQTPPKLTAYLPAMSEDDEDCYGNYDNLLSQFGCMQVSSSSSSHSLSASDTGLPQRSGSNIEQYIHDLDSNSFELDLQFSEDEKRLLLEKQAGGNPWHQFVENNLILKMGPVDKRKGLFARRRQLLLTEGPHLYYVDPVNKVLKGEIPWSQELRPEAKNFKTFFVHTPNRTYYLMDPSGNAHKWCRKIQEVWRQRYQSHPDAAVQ

Molecule	basal HA-p70 S6K activity (p70 S6K; 293 cells co-expressing HA-p70 S6K, unstimulated)	HA-p70 S6K activity after IGF1 stimulation (p70 S6K; 293 cells, 100 nM IGF1 40 min)	IGF1-induced phosphorylation of HA-p70 S6K at Thr412 (p70 S6K; 293 cells, T412-P antibody)	IGF1 induced activation and phosphorylation at Thr412 of the p70 S6K-T2 mutant (p70 S6K; 293 cells, data not shown)	increase in the rate at which PDK1 phosphorylated T308tide (PDK1)
GST-PIF: glutathione S-transferase fused to the last 77 residues of PRK2 (PIF)	virtually undetectable	only a very slight increase	failed to induce	abolished	–
CC[C@H](C)[C@H](NC(=O)[C@H](Cc1ccc(O)cc1)NC(=O)[C@H](CC(=O)O)NC(=O)[C@H](Cc1ccccc1)NC(=O)[C@H](CC(=O)O)NC(=O)[C@H](CCCNC(=N)N)NC(=O)[C@H](Cc1ccccc1)NC(=O)[C@H](CCSC)NC(=O)[C@H](CCC(=O)O)NC(=O)[C@H](CCC(N)=O)NC(=O)[C@H](CCC(=O)O)NC(=O)[C@H](CCC(=O)O)NC(=O)[C@H](CCC(=O)O)NC(=O)[C@H](CO)NC(=O)[C@H](CC(C)C)NC(=O)[C@@H](NC(=O)[C@H](CCCNC(=N)N)NC(=O)[C@@H]1CCCN1C(=O)[C@H](CCC(=O)O)NC(=O)[C@@H](N)CCCNC(=N)N)[C@@H](C)CC)C(=O)N[C@@H](C)C(=O)N[C@@H](CC(=O)O)C(=O)N[C@@H](Cc1c[nH]c2ccccc12)C(=O)N[C@@H](CS)C(=O)O [PIFtide] (H-REPRILSEEEQEMFRDFDYIADWC-OH; N-terminus and C-terminus assumed)	–	–	–	–	4 fold
